Data reported in patent publication US20260335398A1, “METHODS FOR TREATING PANCREATIC CANCER WITH A COMBINATION OF DES-METHYL PATEAMINE A AND A CLASS I HDAC INHIBITOR” (Baylor University, priority 2023, published 2026).

Experiments:
[1] = tested on: VGF and HBA2 loci; test: DRIP-qPCR R-loop accumulation at VGF and HBA2 loci (FIG. 10A); type: cell-based; conditions: MIA PaCa-2, 6+3 hours
Method: FIG. 10A illustrates the fold increase in the percent of input values in DRIP-qPCR for the VGF, HBA2, and SNRPN loci in MIA PaCa-2 cells treated with or without the combination or single agents. Genomic DNA was treated in vitro with or without RNaseH1 before immunoprecipitation using S9.6 antibody. Treatment was for 6+3 hours (i.e., 6-hour romidepsin followed by 3-hour washout with 2 nM DMPatA (combo) or without). Statistical significance was determined by 3-way ANOVA, ***p value<0.001. This experiment confirms the formation of R-loops at the investigated gene loci.
Romidepsin-induced histone hyperacetylation leads to the accumulation of R-loops that can increase genome instability. Because treatment of cells with the combination increased global transcription and led to persistence of histone hyperacetylation, it was postulated the treatment could similarly enhance the formation of R-loops and contribute to cell death. R-loop accumulation was further confirmed using DRIP-qPCR. […]
DRIP assay was performed according to the method previously described (Sanz L A, Chédin F. High-resolution, strand-specific R-loop mapping via S9. 6-based DNA-RNA immunoprecipitation and high-throughput sequencing. Nature protocols. 2019; 14(6):1734). […] Quantitative PCR was performed at the R-loop positive loci VGF and HBA2 genes and R-loop negative locus SNRPN gene with the primers listed in Table 1.

[2] = tested on: MIA PaCa-2 cells; test: Glutamine consumption/rescue of mitochondrial function (ΔOCR) (FIG. 8C right); type: cell-based; conditions: cells starved of glucose, glutamine and pyruvate 1 h, then glutamine
Method: FIG. 8C left panel presents the results of metabolic flux analysis showing basal mitochondrial respiration (OXPHOS) (oxygen consumption rate, OCR) in MIA PaCa-2 cells following treatment with combinations or single drugs. Treatment was for a total of 18 h, as mentioned in FIG. 8A. Statistical significance was determined by one-way ANOVA, ***p value<0.001, *p value<0.01. FIG. 8C right panel presents the results of quantification of glutamine consumption. Cells were treated as mentioned in FIG. 8A. Prior to the metabolic measurements cells were starved of glucose, glutamine, and pyruvate for 1-hour after which glutamine was added and response was recorded as ΔOCR (i.e. OCR before and after glutamine addition). Statistical significance was determined by one-way ANOVA, ****p value<0.0001, ***p value<0.0005.
Because reprograming/augmentation of cellular metabolism by c-MYC is known to support oncogenesis, the Seahorse XF analyzer was used to assess the impact of the treatments on c-MYC-driven metabolism including ATP production, glycolysis, and mitochondrial oxidative phosphorylation (OXPHOS). Extracellular acidification rates, also known as proton efflux rate (PER), were measured for glycolysis and mitochondrial oxygen consumption rates (OCR) for OXPHOS. We utilized the 6 h exposure followed by 18 h washout strategy for romidepsin described earlier. […]

[3] = tested on: cells; conditions: 50 nM, 6-hour exposure; cited from earlier work
[4] = Body weight of xenograft mice (FIG. 2B); type: in vivo, athymic nude mice; conditions: IP; romidepsin 0.75 mg/kg, DMPatA 0.075 mg/kg
Source text: FIGS. 2A and 2B illustrate the results of a MIA PaCa-2 xenograft model of PDAC in male athymic nude mice. FIG. 2A compares tumor growth (mm^3) in mice treated with the indicated concentrations of combination, romidepsin and DMPatA using IP route and vehicles described in the materials and methods section below. FIG. 2B compares body weight (g) of mice treated with the combination and single agents following treatment. FIGS. 2C and 2D compare quantification of H3K9ac and c-MYC antibodies. Frozen sections from MIA PaCa-2 xenograft tumor tissues were subjected to immunohistochemical analysis using antibodies against H3K9ac, and c-MYC. Fluorescence images were captured using fluorescent microscopy and the fluorescent signal from H3K9ac and c-MYC antibodies were quantified. To quantify fluorescence intensity at least 500 cells per condition were measured for each antibody at 40× magnification. The median of the signal intensity is shown. Statistical significance was determined by one-way ANOVA using Tukey multiple comparisons test, ****p value<0.0001.
Animal studies were performed according to Institutional Animal Care and Use Committee (IACUC) protocol number AC-AABD2601. Following the establishment of initial dose levels for individual drugs, efficacy of the combination and single agents in a MIA PaCa-2 xenograft model was assessed at a tolerable dose and schedule. […]

In the case of C/C=C1\NC(=O)[C@H]2CSSCC/C=C/[C@H](CC(=O)N[C@H](C(C)C)C(=O)N2)OC(=O)[C@H](C(C)C)NC1=O [romidepsin], the “R-loop accumulation (percent of input, DRIP-qPCR)” value [1] is given as “significant increase in the percent of input”, the “glutamine rescue of mitochondrial function (ΔOCR)” value [2] is given as “impaired glutamine rescue of mitochondrial function” and the “susceptibility of cells to romidepsin” value [3] is given as “Only a subset of cells susceptible”. The “body weight vs vehicle” value [4] was “neither the single agent nor the combination treatments had a significant impact on weight”.
